{"source": "paper doi:10.1101/2021.01.13.426390v3", "about": "(biorxiv, 2021)", "target": "T1, AGR3 (Homo sapiens, UniProt Q8TD06)", "T1 sequence (Q8TD06 22-166)": "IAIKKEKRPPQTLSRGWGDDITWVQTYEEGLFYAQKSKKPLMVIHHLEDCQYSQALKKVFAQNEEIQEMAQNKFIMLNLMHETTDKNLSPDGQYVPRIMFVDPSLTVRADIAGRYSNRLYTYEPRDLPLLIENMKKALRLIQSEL", "experiment": "biotin probe labelling, non-reducing SDS-PAGE, streptavidin-AP blot", "assay_type": "binding", "conditions": "covalent; labelled compound; 30 uM probe, pH 7.4, 37 C", "data": [{"smiles": "O=C(CCCC[C@@H]1SC[C@@H]2NC(=O)N[C@@H]21)NCC(=O)N1C[C@@H]2CS(=O)(=O)SC[C@H]2C1", "note": "(racemic) [Biotin-GlyPyrDTDO]", "values": [{"measurement": "biotin probe labelling, non-reducing SDS-PAGE, streptavidin-AP blot", "result": "it was also labeled by Biotin-GlyPyrDTDO"}]}]}
